Results: PubChem BioAssay AID1963967 (Molecular Pharmacology Branch, DTP, NCI, 2024)

Tested on: 855422-203-R-J1-PDC spheroids with HUVEC/MSC, viability
Assay: Anticancer human tumor 855422-203-R-J1-PDC patient-derived bladder carcinoma cell line growth inhibition [PI3K]
Conditions: for viability, T/C: stronger effect = lower value
In short: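 Agents were dosed from a top concentration near clinical Cmax (otherwise 10 microM) in half-log decrements, alone or combined with PI3K inhibitors. The spheroids contain tumor cells plus endothelial (HUVEC) and MSC stroma; viability is measured.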

[1] = curve of first compound, second compound 0.0316 µM
[2] = curve of first compound, second compound 0.1 µM
[3] = curve of first compound, second compound 0.316 µM
[4] = curve of first compound, second compound 1 µM
[5] = second compound 0.0316 µM, first compound 0.0316 µM
[6] = second compound 0.0316 µM, first compound 0.1 µM
[7] = second compound 0.0316 µM, first compound 0.316 µM
[8] = second compound 0.0316 µM, first compound 1 µM
[9] = second compound 0.0316 µM, first compound 3.16 µM
[10] = second compound 0.0316 µM, first compound 10 µM
[11] = second compound 0.1 µM, first compound 0.0316 µM
[12] = second compound 0.1 µM, first compound 0.1 µM
[13] = second compound 0.1 µM, first compound 0.316 µM
[14] = second compound 0.1 µM, first compound 1 µM
[15] = second compound 0.1 µM, first compound 3.16 µM
[16] = second compound 0.1 µM, first compound 10 µM
[17] = second compound 0.316 µM, first compound 0.0316 µM
[18] = second compound 0.316 µM, first compound 0.1 µM
[19] = second compound 0.316 µM, first compound 0.316 µM
[20] = second compound 0.316 µM, first compound 1 µM
[21] = second compound 0.316 µM, first compound 3.16 µM
[22] = second compound 0.316 µM, first compound 10 µM
[23] = second compound 1 µM, first compound 0.0316 µM
[24] = second compound 1 µM, first compound 0.1 µM
[25] = second compound 1 µM, first compound 0.316 µM
[26] = second compound 1 µM, first compound 1 µM
[27] = second compound 1 µM, first compound 3.16 µM
[28] = second compound 1 µM, first compound 10 µM
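Further: agents incubated with spheroids for one week before read-out.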
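Wherever viability, T/C is given: 100% = DMSO vehicle-treated control wells.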

**Q.** How did the IC50 [1] turn out when `CC(C)NCC(C(=O)N1CCN(c2ncnc3c2C(C)CC3O)CC1)c1ccc(Cl)cc1` (stereo unspecified) + Cc1nc(NC(=O)N2CCCC2C(N)=O)sc1-c1ccnc(C(C)(C)C(F)(F)F)c1 was run?
**A.** 1360 nM

**Q.** What about the IC50 [2] of the same molecule?
**A.** 1080 nM

**Q.** What about the IC50 [3] of the same molecule?
**A.** 875 nM

**Q.** And the IC50 [4]?
**A.** 188 nM

**Q.** And the IC50 (curve of first compound, second compound 3.16 µM)?
**A.** < 31.6 nM

**Q.** What about the IC50 (curve of first compound, second compound 10 µM) of the same molecule?
**A.** < 31.6 nM

**Q.** What about the viability, T/C [5] of the same molecule?
**A.** 94.8%

**Q.** And the viability, T/C [6]?
**A.** 77.4%

**Q.** And the viability, T/C [7]?
**A.** 80.7%

**Q.** What about the viability, T/C [8] of the same molecule?
**A.** 52.2%

**Q.** And the viability, T/C [9]?
**A.** 35.9%

**Q.** What about the viability, T/C [10] of the same molecule?
**A.** 20%

**Q.** What about the viability, T/C [11] of the same molecule?
**A.** 88.6%

**Q.** And the viability, T/C [12]?
**A.** 80.6%

**Q.** And the viability, T/C [13]?
**A.** 67.9%

**Q.** And the viability, T/C [14]?
**A.** 51.1%

**Q.** What about the viability, T/C [15] of the same molecule?
**A.** 33.7%

**Q.** And the viability, T/C [16]?
**A.** 19.3%

**Q.** What about the viability, T/C [17] of the same molecule?
**A.** 85.6%

**Q.** And the viability, T/C [18]?
**A.** 69%

**Q.** What about the viability, T/C [19] of the same molecule?
**A.** 68.3%

**Q.** What about the viability, T/C [20] of the same molecule?
**A.** 47.2%

**Q.** And the viability, T/C [21]?
**A.** 30.8%

**Q.** And the viability, T/C [22]?
**A.** 16.1%

**Q.** What about the viability, T/C [23] of the same molecule?
**A.** 58%

**Q.** And the viability, T/C [24]?
**A.** 55%

**Q.** And the viability, T/C [25]?
**A.** 42.4%

**Q.** What about the viability, T/C [26] of the same molecule?
**A.** 42.5%

**Q.** And the viability, T/C [27]?
**A.** 24.2%

**Q.** And the viability, T/C [28]?
**A.** 11.1%

**Q.** What about the viability, T/C (second compound 3.16 µM, first compound 0.0316 µM) of the same molecule?
**A.** 39.8%

**Q.** And the viability, T/C (second compound 3.16 µM, first compound 0.1 µM)?
**A.** 37%

**Q.** What about the viability, T/C (second compound 3.16 µM, first compound 0.316 µM) of the same molecule?
**A.** 30.7%

**Q.** And the viability, T/C (second compound 3.16 µM, first compound 1 µM)?
**A.** 30.2%

**Q.** And the viability, T/C (second compound 3.16 µM, first compound 3.16 µM)?
**A.** 17.5%

**Q.** What about the viability, T/C (second compound 3.16 µM, first compound 10 µM) of the same molecule?
**A.** 7.85%

**Q.** And the viability, T/C (second compound 10 µM, first compound 0.0316 µM)?
**A.** 20.2%

**Q.** What about the viability, T/C (second compound 10 µM, first compound 0.1 µM) of the same molecule?
**A.** 15.3%

**Q.** And the viability, T/C (second compound 10 µM, first compound 0.316 µM)?
**A.** 17.8%

**Q.** And the viability, T/C (second compound 10 µM, first compound 1 µM)?
**A.** 14.2%

**Q.** What about the viability, T/C (second compound 10 µM, first compound 3.16 µM) of the same molecule?
**A.** 10.5%

**Q.** What about the viability, T/C (second compound 10 µM, first compound 10 µM) of the same molecule?
**A.** 3.97%

**Q.** Which results are given for `CC(C)NCC(C(=O)N1CCN(c2ncnc3c2C(C)CC3O)CC1)c1ccc(Cl)cc1` (stereo unspecified) + CC(Nc1ccc2c(c1)OCCn1cc(N3C(=O)OCC3C(F)F)nc1-2)C(N)=O?
**A.** IC50 (curve of first compound, second compound 0.00316 µM): 836 nM; IC50 (curve of first compound, second compound 0.01 µM): 1120 nM; IC50 [1]: 1160 nM; IC50 [2]: 671 nM; IC50 [3]: < 31.6 nM; IC50 [4]: < 31.6 nM; viability, T/C (second compound 0.00316 µM, first compound 0.0316 µM): 107%; viability, T/C (second compound 0.00316 µM, first compound 0.1 µM): 65.8%; viability, T/C (second compound 0.00316 µM, first compound 0.316 µM): 70.4%; viability, T/C (second compound 0.00316 µM, first compound 1 µM): 45.3%; viability, T/C (second compound 0.00316 µM, first compound 3.16 µM): 38.7%; viability, T/C (second compound 0.00316 µM, first compound 10 µM): 20.4%; viability, T/C (second compound 0.01 µM, first compound 0.0316 µM): 82.2%; viability, T/C (second compound 0.01 µM, first compound 0.1 µM): 65.8%; viability, T/C (second compound 0.01 µM, first compound 0.316 µM): 71.3%; viability, T/C (second compound 0.01 µM, first compound 1 µM): 51.5%; viability, T/C (second compound 0.01 µM, first compound 3.16 µM): 32.2%; viability, T/C (second compound 0.01 µM, first compound 10 µM): 18.4%; viability, T/C [5]: 66.6%; viability, T/C [6]: 70%; viability, T/C [7]: 67.7%; viability, T/C [8]: 49.1%; viability, T/C [9]: 34.8%; viability, T/C [10]: 16.4%; viability, T/C [11]: 65.8%; viability, T/C [12]: 63.6%; viability, T/C [13]: 61.9%; viability, T/C [14]: 42.8%; viability, T/C [15]: 27.2%; viability, T/C [16]: 12.4%; viability, T/C [17]: 47.6%; viability, T/C [18]: 49.6%; viability, T/C [19]: 45.8%; viability, T/C [20]: 38.3%; viability, T/C [21]: 24%; viability, T/C [22]: 11.9%; viability, T/C [23]: 39.2%; viability, T/C [24]: 36.5%; viability, T/C [25]: 31.4%; viability, T/C [26]: 28.3%; viability, T/C [27]: 20.9%; viability, T/C [28]: 10.5%

**Q.** `CC(Nc1ccc2c(c1)OCCn1cc(N3C(=O)OCC3C(F)F)nc1-2)C(N)=O` (stereo unspecified) was tested. Which viability, T/C (compound 0.00316 µM) did it give?
**A.** 107% [middle of 8 runs]

**Q.** And the viability, T/C (compound 0.01 µM)?
**A.** 104% [middle of 8 runs]

**Q.** What about the viability, T/C (compound 0.0316 µM) of the same molecule?
**A.** 98.5% [middle of 8 runs]

**Q.** And the viability, T/C (compound 0.1 µM)?
**A.** 76.7% [middle of 8 runs]

**Q.** What about the viability, T/C (compound 0.316 µM) of the same molecule?
**A.** 50.6% [middle of 8 runs]

**Q.** And the viability, T/C (compound 1 µM)?
**A.** 35.6% [middle of 8 runs]

**Q.** What about the IC50 (compound alone, run of 05/08/2023) of the same molecule?
**A.** 300 nM [middle of 8 runs]
